Reference: US12275731B2, “Azaindole inhibitors of wild-type and mutant forms of LRRK2” (DANA-FARBER CANCER INSTITUTE, INC., priority 2018, dated 2025)

Legend:
Assay in all cases: KinomeScan profiling
Type in all cases: binding
[1] = biological target: CAMK2B (Homo sapiens, UniProt Q13554); settings: read-out: % control
Method in brief: (§1)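 1 μM cpd in DMSO; 468-kinase panel; readout RLU. % ctrl = (cpd − pos ctrl)/(neg ctrl − pos ctrl) ×100. Pos ctrl = 0%, DMSO = 100%. Hit cut-off <35%.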

[2] = biological target: CDK5 (Homo sapiens, UniProt Q00535); settings: CDK5, 1 μM; read-out: % control
Chain of CDK5 (Q00535 whole entry): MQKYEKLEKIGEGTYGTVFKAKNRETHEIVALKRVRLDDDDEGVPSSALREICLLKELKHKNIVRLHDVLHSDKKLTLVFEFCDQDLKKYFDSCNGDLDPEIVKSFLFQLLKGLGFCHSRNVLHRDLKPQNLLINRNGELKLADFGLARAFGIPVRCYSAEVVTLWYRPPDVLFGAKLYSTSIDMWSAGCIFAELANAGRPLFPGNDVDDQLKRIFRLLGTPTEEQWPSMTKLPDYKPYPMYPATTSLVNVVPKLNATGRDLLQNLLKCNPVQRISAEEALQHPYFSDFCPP
Method in brief: as §1

[3] = biological target: CDK9 (Homo sapiens, UniProt P50750); settings: CDK9, 1 μM; read-out: % control
Chain of CDK9 (P50750 whole entry): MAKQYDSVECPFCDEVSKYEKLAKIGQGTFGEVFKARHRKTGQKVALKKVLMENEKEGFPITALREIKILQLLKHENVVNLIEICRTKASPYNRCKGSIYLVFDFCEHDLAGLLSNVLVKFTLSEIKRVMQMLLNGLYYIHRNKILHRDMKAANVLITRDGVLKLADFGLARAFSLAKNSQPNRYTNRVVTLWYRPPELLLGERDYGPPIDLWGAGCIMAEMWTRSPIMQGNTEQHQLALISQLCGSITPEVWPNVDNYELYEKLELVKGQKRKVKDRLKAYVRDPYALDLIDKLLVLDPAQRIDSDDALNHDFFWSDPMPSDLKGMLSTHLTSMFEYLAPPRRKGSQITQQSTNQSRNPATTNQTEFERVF
Method in brief: as §1

[4] = biological target: CDKL3 (Homo sapiens, UniProt Q8IVW4); settings: CDKL3, 1 μM; read-out: % control
Method in brief: as §1

[5] = biological target: CLK4 (Homo sapiens, UniProt Q9HAZ1); settings: CLK4, 1 μM; read-out: % control
Chain of CLK4 (Q9HAZ1 whole entry): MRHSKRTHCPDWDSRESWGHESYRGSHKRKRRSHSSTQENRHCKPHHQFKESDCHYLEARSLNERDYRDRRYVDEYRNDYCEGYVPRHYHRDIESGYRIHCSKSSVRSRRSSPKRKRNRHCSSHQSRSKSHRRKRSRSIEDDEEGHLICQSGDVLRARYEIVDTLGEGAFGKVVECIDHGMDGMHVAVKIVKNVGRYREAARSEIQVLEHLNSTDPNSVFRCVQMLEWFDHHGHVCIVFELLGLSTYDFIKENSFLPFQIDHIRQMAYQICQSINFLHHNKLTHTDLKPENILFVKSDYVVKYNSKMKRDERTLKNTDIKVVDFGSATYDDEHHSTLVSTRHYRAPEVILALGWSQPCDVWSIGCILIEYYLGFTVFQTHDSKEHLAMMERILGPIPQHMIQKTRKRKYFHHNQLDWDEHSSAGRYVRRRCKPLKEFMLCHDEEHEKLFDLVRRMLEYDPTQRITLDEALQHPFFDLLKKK
Method in brief: as §1

[6] = biological target: MET (Homo sapiens, UniProt P08581); settings: read-out: % control
Chain of MET (P08581 25-1390): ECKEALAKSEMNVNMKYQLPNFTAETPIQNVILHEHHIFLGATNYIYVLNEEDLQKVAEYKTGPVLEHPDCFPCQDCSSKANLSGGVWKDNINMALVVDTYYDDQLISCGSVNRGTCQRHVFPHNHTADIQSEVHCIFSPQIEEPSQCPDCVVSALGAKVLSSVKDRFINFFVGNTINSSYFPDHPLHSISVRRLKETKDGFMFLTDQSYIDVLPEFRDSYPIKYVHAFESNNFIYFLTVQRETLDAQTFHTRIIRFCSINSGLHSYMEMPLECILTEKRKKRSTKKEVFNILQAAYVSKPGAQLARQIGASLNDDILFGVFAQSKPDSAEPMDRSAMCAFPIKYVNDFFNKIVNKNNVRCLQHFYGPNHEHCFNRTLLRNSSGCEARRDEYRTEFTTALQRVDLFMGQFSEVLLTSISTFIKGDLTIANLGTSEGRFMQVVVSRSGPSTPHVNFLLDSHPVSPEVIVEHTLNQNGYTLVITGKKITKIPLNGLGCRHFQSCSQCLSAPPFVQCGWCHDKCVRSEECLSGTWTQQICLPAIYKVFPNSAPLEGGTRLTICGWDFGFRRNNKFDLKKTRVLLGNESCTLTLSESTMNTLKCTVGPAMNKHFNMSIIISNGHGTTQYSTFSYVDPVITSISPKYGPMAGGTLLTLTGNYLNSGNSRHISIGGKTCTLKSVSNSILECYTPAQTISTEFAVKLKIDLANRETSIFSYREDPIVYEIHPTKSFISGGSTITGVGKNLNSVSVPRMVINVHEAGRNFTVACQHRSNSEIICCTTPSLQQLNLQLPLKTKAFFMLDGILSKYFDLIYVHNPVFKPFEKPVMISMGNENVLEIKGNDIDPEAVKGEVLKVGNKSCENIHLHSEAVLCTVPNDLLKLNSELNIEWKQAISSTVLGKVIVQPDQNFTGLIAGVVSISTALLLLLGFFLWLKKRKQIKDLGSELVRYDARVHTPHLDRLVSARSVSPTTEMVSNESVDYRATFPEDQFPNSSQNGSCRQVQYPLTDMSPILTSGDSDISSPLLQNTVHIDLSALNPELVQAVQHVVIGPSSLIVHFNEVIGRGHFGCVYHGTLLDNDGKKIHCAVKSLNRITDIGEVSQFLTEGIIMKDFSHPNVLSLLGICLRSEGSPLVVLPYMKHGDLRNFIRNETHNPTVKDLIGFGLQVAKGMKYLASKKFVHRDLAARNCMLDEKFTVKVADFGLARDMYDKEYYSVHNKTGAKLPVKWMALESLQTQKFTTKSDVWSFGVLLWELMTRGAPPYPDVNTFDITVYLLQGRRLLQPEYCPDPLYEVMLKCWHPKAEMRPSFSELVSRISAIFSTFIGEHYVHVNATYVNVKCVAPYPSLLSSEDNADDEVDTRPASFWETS
Method in brief: as §1

[7] = biological target: T1, MST2 (Homo sapiens, UniProt Q13188); settings: MST2, 1 μM; read-out: % control
T1 sequence (Q13188 1-491): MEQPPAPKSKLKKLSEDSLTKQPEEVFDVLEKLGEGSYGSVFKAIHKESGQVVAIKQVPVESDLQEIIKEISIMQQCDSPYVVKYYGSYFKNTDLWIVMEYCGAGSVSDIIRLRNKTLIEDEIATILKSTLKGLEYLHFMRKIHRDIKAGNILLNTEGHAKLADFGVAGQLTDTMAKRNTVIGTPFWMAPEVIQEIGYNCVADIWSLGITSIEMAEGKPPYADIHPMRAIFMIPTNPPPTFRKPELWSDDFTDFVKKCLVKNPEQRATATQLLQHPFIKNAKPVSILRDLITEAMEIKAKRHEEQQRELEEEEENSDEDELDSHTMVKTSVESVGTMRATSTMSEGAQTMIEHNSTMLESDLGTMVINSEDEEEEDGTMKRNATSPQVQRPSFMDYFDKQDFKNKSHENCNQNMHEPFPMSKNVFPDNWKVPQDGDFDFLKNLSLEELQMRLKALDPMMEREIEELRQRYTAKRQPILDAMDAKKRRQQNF
Method in brief: as §1

[8] = biological target: MST3 (Homo sapiens, UniProt Q9Y6E0); settings: MST3, 1 μM; read-out: % control
Method in brief: as §1

[9] = biological target: T2, PIK3CA(C420R) (Homo sapiens, UniProt P42336, C420R); settings: read-out: % control
T2 construct: purchased KinomeScan® (panel service)
T2 sequence (P42336 whole entry C420R): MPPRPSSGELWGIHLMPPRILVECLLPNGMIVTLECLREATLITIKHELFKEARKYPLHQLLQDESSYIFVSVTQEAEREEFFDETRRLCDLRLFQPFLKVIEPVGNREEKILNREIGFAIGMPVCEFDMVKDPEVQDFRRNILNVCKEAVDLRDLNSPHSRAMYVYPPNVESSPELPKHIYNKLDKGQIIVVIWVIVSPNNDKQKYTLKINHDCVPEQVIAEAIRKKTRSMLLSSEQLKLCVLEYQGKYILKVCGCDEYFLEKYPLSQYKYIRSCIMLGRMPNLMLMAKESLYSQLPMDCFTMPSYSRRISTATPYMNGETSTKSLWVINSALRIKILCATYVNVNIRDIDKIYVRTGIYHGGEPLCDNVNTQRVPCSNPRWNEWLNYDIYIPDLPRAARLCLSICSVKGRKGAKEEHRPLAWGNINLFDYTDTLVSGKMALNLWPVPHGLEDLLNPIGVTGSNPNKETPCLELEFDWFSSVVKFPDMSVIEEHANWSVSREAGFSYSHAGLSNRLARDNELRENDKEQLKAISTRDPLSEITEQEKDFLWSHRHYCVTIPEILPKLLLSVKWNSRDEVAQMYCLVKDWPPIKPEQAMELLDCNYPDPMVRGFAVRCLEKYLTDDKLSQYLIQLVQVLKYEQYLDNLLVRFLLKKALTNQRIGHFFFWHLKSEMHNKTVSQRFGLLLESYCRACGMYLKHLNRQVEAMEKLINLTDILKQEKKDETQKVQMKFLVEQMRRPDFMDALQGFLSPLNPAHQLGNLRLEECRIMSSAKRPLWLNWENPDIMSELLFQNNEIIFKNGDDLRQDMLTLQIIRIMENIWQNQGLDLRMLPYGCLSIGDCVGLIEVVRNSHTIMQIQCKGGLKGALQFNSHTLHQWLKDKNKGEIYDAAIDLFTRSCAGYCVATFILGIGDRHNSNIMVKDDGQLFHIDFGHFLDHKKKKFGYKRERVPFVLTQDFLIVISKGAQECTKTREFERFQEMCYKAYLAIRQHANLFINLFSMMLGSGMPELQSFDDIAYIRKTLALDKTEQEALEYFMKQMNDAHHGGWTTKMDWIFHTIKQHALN
Method in brief: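 First, compounds in DMSO are added at 1 μM to each of 468 kinase assays. Next, RLU signals are normalised between positive control (0%) and DMSO (100%). Finally, kinases under 35% are flagged active.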

[10] = biological target: T3, PIK3CA(H1047Y) (Homo sapiens, UniProt P42336, H1047Y); settings: read-out: % control
T3 construct: purchased KinomeScan® (panel service)
T3 sequence (P42336 whole entry H1047Y): as the sequence (P42336 whole entry C420R) above, with R420C, H1047Y counted along it
Method in brief: as §1

[11] = biological target: T4, RSK2(Kin.Dom.2-C-terminal) (Homo sapiens, UniProt P51812); settings: read-out: % control
T4 construct: RSK2(Kin.Dom.2-C-terminal)
T4 sequence (P51812 422-679 limits assumed): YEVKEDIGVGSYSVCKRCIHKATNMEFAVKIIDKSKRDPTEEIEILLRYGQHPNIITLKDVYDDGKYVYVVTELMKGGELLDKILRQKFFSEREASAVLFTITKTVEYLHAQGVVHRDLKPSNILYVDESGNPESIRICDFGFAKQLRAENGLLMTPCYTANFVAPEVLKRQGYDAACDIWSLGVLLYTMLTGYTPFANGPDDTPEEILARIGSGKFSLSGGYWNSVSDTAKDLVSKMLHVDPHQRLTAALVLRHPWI
Method in brief: as §1

[12] = biological target: T5, TAOK3 (Homo sapiens, UniProt Q9H2K8); settings: TAOK3, 1 μM; read-out: % control
T5 sequence (Q9H2K8 1-898): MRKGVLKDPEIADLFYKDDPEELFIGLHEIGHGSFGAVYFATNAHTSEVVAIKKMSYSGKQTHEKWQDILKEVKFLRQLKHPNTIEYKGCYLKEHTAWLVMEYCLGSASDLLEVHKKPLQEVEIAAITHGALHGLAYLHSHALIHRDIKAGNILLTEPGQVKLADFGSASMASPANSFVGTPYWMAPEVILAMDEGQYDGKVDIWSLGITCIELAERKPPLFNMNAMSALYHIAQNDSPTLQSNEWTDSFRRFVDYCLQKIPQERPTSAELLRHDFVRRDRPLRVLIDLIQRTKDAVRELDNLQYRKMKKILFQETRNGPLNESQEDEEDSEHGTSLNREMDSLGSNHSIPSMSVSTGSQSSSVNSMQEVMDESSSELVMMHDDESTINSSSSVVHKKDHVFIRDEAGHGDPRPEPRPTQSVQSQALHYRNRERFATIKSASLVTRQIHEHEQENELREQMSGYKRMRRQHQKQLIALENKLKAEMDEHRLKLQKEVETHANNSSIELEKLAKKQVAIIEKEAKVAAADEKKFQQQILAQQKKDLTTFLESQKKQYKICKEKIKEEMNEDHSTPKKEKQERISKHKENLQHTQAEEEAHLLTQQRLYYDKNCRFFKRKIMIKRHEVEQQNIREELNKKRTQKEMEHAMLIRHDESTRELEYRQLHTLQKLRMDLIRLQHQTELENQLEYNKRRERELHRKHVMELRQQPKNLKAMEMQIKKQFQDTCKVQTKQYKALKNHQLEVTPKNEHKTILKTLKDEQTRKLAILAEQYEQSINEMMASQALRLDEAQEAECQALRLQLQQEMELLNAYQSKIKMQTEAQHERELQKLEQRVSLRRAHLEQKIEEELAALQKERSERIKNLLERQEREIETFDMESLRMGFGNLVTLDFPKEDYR
Method in brief: as §1

[13] = biological target: p38-beta (Homo sapiens, UniProt Q15759); settings: read-out: % control
Chain of p38-beta (Q15759 whole entry): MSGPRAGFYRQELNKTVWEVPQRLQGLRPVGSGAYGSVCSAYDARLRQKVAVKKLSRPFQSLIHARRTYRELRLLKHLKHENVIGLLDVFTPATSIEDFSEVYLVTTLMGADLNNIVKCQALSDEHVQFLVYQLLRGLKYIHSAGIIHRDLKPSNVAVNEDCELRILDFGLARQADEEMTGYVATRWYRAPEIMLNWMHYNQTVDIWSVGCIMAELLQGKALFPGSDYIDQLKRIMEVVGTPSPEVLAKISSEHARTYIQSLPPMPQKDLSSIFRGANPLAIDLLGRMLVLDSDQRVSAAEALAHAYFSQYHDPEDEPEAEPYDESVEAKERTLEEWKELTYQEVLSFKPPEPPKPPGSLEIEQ
Method in brief: as §1

Chain of CAMK2B (Q13554 whole entry): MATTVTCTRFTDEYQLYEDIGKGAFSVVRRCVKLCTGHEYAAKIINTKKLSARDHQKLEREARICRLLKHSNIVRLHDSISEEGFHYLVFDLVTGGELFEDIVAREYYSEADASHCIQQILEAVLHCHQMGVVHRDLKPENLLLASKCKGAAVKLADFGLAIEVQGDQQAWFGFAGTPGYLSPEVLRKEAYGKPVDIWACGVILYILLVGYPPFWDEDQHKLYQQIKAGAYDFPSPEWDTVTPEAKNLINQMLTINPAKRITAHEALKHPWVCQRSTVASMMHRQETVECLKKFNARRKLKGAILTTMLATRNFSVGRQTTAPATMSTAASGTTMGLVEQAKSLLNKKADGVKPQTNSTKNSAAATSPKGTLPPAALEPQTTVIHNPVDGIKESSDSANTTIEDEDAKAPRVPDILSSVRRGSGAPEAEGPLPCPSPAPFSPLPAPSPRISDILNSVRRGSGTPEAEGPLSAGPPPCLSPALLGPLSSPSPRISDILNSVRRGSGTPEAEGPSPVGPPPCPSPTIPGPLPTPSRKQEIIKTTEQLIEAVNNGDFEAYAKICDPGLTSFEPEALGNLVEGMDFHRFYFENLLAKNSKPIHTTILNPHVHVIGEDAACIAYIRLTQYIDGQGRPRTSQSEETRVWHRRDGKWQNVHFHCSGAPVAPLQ

Row | Compound | remaining binding at 1 µM [1] [%] | remaining binding at 1 µM [2] [%] | remaining binding at 1 µM [3] [%] | remaining binding at 1 µM [4] [%] | remaining binding at 1 µM [5] [%] | remaining binding at 1 µM [6] [%] | remaining binding at 1 µM [7] [%] | remaining binding at 1 µM [8] [%] | remaining binding at 1 µM [9] [%] | remaining binding at 1 µM [10] [%] | remaining binding at 1 µM [11] [%] | remaining binding at 1 µM [12] [%] | remaining binding at 1 µM [13] [%]
1 | CNc1c(-c2cnn([C@H]3CCN(C(C)=O)C[C@@H]3F)c2)cnc2[nH]cc(Cl)c12 [Compound 77, 1-((3S,4S)-4-(4-(3-chloro-4-(methylamino)-1H-pyrrolo[2,3-b]pyridin-5-yl)-1H-pyrazol-1-yl)-3-fluoropiperidin-1-yl)ethan-1-one] | 100 | 91 | 83 | 94 | 72 | 63 | 100 | 72 | 75 | 70 | 98 | 95 | 95
2 | CNc1c(-c2ccc(C(=O)N3CCC(N4CCOCC4)CC3)cc2)cnc2[nH]cc(Cl)c12 [Compound 96, (4-(3-chloro-4-(methylamino)-1H-pyrrolo[2,3-b]pyridin-5-yl)phenyl)(4-morpholinopiperidin-1-yl)methanone] | 100 | 97 | 87 | 100 | 11 | 84 | 99 | 74 | 75 | 84 | 97 | 91 | 58
3 | O=C(c1ccc(-c2cnc3[nH]cc(Cl)c3c2NC2CCCC2)cc1)N1CCC(N2CCOCC2)CC1 [Compound 101, (4-(3-chloro-4-(cyclopentylamino)-1H-pyrrolo[2,3-b]pyridin-5-yl)phenyl)(4-morpholinopiperidin-1-yl)methanone] | 99 | 94 | 96 | 100 | 42 | 16 | 74 | 86 | 100 | 100 | 83 | 88 | 92
